These results are taken from PMC8877905, “Novel Cocrystals of Vonoprazan: Machine Learning-Assisted Discovery” (Pharmaceutics, 2022).

Series [1] can be described thus: pKa calculation with ChemAxon calculator and ΔpKa rule. The following applies: pKa (base) − pKa (acid); VPZ pKa = 9.4 versus calculated coformer pKa. The text has this: The combination with a value 0 ≤ ΔpKa ≤ 3 is much less predictable and falls within a “salt-cocrystal continuum” [38]. We applied this approach to the coformers selected based on virtual cocrystal screening to assess whether the combination would form a cocrystal or salt (Table 1).

On the set-up of series [2]: method as in PMID 28578848. The following applies: cited from earlier work.
Series [3] is described as follows: Equilibrium solubility in pH 1.2 and pH 6.8 solutions, 37 °C, 24 h, HPLC. Particulars: for solubility thermodynamic at 24 h: 37 °C, VPZ concentration by HPLC. It counts as physicochemical. As to the method:
Excess amounts (~500 mg) of powder samples were added to 10 mL of pH 1.2 solution and 30 mL of pH 6.8 solution. […] After 24 h, aliquots of 2.5 mL were withdrawn from the suspension using a 0.45 μm nylon syringe filter and diluted immediately, followed by analysis of the VPZ concentration by HPLC.
The VPZ concentration was measured using an HPLC system (UFLC; Shimadzu) with a diode array detector and Shim-pack GIS-ODS C18 column (4.6 × 250 mm, 5 μm). HPLC analysis was conducted at a column oven temperature of 40 °C with a flow rate of 1 mL/min, and the mobile phase was a mixture of 20 mM ammonium formate in water (pH 3.05) and HPLC-grade MeOH with the addition of 10 mM triethylamine (TEA) (80% : 20%, v/v). The volume of the injected samples was 10 μL and the VPZ content was assayed spectrophotometrically at a wavelength of 245 nm.

Series [4] in a line: Accelerated stability testing in the solid state. It is filed as physicochemical.
Series [5] in a line: Stability in aqueous solution: PXRD of solids remaining after 24 h slurry. It is filed as physicochemical. Particulars: pH 6.8 solution, slurry for 24 h. As to the method: The solubility and dissolution behavior of drugs in aqueous solvent are important physicochemical properties for good oral bioavailability. VPZ has pH-dependent solubility, which increases with decreasing pH. […] The aqueous solubility for cocrystals and salts of VPZ was measured in pH 1.2 and 6.8 buffer solutions at 37 °C. VPZ concentrations were determined in aliquots retrieved from the suspensions after 24 h by HPLC. One of the major challenges in investigations of solubility in multicomponent solid forms is the change in the solution composition due to precipitation of the components dissociated over the test period. In this study, the stability of the cocrystals in aqueous solution was checked by PXRD analysis of the solids remaining after solubility experiments. At pH 1.2, however, the amount recovered from the suspensions was too low to confirm their stability. […] Under both conditions, the solubility order was VPZ–RES > VPZ–CAT > VPZ–GAL.

Series [6] can be described thus: Intrinsic dissolution rate (IDR) in phosphate buffer pH 6.8. It counts as physicochemical. Particulars: for IDR in pH 6.8: phosphate buffer pH 6.8, 37 °C, 50 rpm, 13 mm pellet. As for the experimental part:
IDR was investigated using a Distek […] dissolution tester (Distek, North Brunswick, NJ, USA). […] Aliquots of 1.5 mL of the dissolution samples were collected at predetermined time intervals, filtered through 0.45 μm syringe filters, and analyzed for their VPZ concentration by HPLC. The VPZ concentration was measured using an HPLC system (UFLC; Shimadzu) with a diode array detector and Shim-pack GIS-ODS C18 column (4.6 × 250 mm, 5 μm). […] The volume of the injected samples was 10 μL and the VPZ content was assayed spectrophotometrically at a wavelength of 245 nm.

Where two headings read alike, the source gives them in different places.

On to `O=C(O)c1ccc(O)cc1` [4-hydroxybenzoic acid], for which the ΔpKa in series [1] is given as 5.02.

For `NC(=O)c1ccccc1` [Benzamide], the ΔpKa in series [1] is on record as −5.16.

With `NC(=O)CO` [Glycolamide], in series [1], the ΔpKa is −4.25.

Take `Oc1ccc(O)cc1` [Hydroquinone]: the ΔpKa in series [1] was −0.58.

Turning to `NC(=O)c1ccncc1` [Isonicotinamide], in series [1], the ΔpKa is recorded as −4.31.

For the molecule `Cc1cc(O)ccc1O` [Methyl-hydroquinone], the ΔpKa in series [1] was −0.7.

Turning to `NC(=O)c1cccnc1` [Nicotinamide], in series [1], the ΔpKa was −3.99.

For the molecule `NC(=O)C(=O)O` [Oxamic acid], the ΔpKa in series [1] is on record as 6.92.

For the molecule `Oc1ccccc1O` [Pyrocatechol], the ΔpKa in series [1] is −0.24.

As to `Oc1cccc(O)c1O` [Pyrogallol], the ΔpKa in series [1] is recorded as 0.3.

Regarding `O=C1CC[C@@H](C(=O)O)N1` [Pyroglutamic acid], in series [1], the ΔpKa is 5.79.

In the case of `O=C(O)c1ccc[nH]1` [Pyrrole-2-carboxylic acid], the ΔpKa in series [1] is 5.78.

Turning to `Oc1cccc(O)c1` [Resorcinol], the ΔpKa in series [1] is reported as −0.17.

As for `O=C(O)CCC(=O)O` [Succinic acid], the ΔpKa in series [1] is on record as 5.54.

With `NC(N)=O` [Urea], the ΔpKa in series [1] is listed as −6.9.

As to `CNCc1cc(-c2ccccc2F)n(S(=O)(=O)c2cccnc2)c1.O=C(O)/C=C/C(=O)O` [VPZ-FUM, 1-[5-(2-Fluorophenyl)-1-(pyridin-3-ylsulfonyl)-1H-pyrrol-3-yl]-N-methylmethanamine monofumarate], the “reported solubility in water” value in series [2] was less than 1000 µg/mL. The solubility at 24 h in series [3] (Figure 7a, pH 1.2 buffer, read-out: Solubility in pH 1.2 buffer, Concentration) was 27600 µg/mL; in series [3] (Figure 7b, pH 6.8 buffer, read-out: Solubility in pH 6.8 buffer, Concentration) it was 3400 µg/mL. For the same molecule, the solubility thermodynamic at 24 h in series [3] (pH 1.2 solution, read-out: Equilibrium Solubility after 24 h in pH 1.2) worked out at 27710 ± 210 µg/mL; in series [3] (pH 6.8 solution, read-out: Equilibrium Solubility after 24 h in pH 6.8) it was 3400 ± 450 µg/mL. The “stability in the solid state” value in series [4] is recorded as “remained stable”. In addition, the “stability in aqueous solution (PXRD of undissolved residue)” value in series [5] is given as “different from those of the starting material”. For the same molecule, the “time to reach peak concentration in IDR plot” value in series [6] (pH 6.8 buffer) is given as not above 60 min. In addition, in series [6], the “IDR in pH 6.8” value came out at 1.35 mg/cm^2∙min.

In the case of `O=C1NS(=O)(=O)c2ccccc21` [saccharin], the ΔpKa in series [1] is reported as 7.46.

With Vonoprazan–pyrogallol [VPZ-GAL], the “IDR in pH 6.8” value in series [6] was 0.69 mg/cm^2∙min.
